Test results reported in ChEMBL document CHEMBL4651402, “Screening of ~5500 FDA-approved drugs and clinical candidates for anti-SARS-CoV-2 activity” (2021).

Test system: SARS-CoV-2
Assay: microbe, parasite or virus in culture
Details: Severe acute respiratory syndrome coronavirus 2, Vero C1008, 48 h

## CC(C)Cc1ccc(CC(=O)O)cc1 [IBUFENAC]
  IC50: > 20 µM
read-out: pIC50 (converted)
  IC50: > 20 µM

## C[C@]12C=CC(=O)C=C1CC[C@H]1[C@@H]3C[C@@H](O)[C@](O)(C(=O)CO)[C@@]3(C)C[C@H](O)[C@@]12F [TRIAMCINOLONE]
  IC50: > 20 µM
read-out: pIC50 (converted)
  IC50: > 20 µM

## CCC1NC(=O)c2cc(S(N)(=O)=O)c(Cl)cc2N1 (stereo unspecified) [QUINETHAZONE]
  IC50: > 20 µM
read-out: pIC50 (converted)
  IC50: > 20 µM

## Cc1noc(-c2ccc(-c3ccc(C4(C(=O)O)CC4)cc3)cc2)c1NC(=O)O[C@@H](C)c1ccccc1
  IC50: > 20 µM
read-out: pIC50 (converted)
  IC50: > 20 µM

## NC(=O)N=NC(N)=O
  IC50: > 20 µM
read-out: pIC50 (converted)
  IC50: > 20 µM

## Cc1cn(Cc2ccc(Cl)cc2Cl)c2c(/C=C/C(=O)NS(=O)(=O)c3cc(Cl)c(Cl)s3)cc(F)cc12
  IC50: > 20 µM
read-out: pIC50 (converted)
  IC50: > 20 µM

## O=[N+]([O-])c1ccc(O)c2ncccc12 [NITROXOLINE]
  IC50: > 20 µM
read-out: pIC50 (converted)
  IC50: > 20 µM

## CN1[C@@H]2CC[C@H]1C[C@@H](OC(=O)C(CO)c1ccccc1)C2 (stereo partly specified) [ATROPINE]
  IC50: > 20 µM
read-out: pIC50 (converted)
  IC50: > 20 µM

## O=C(CCCN1CCC(n2c(=S)[nH]c3ccccc32)CC1)c1ccc(F)cc1 [TIMIPERONE]
  IC50: > 20 µM
read-out: pIC50 (converted)
  IC50: > 20 µM

## CC(C)(CNC(N)=O)NCC(O)COC(=O)c1ccccc1F (stereo unspecified) [FLESTOLOL]
  IC50: > 20 µM
read-out: pIC50 (converted)
  IC50: > 20 µM

## CS(=N)(=O)CC[C@H](N)C(=O)O (stereo partly specified)
  IC50: > 20 µM
read-out: pIC50 (converted)
  IC50: > 20 µM

## COc1cc(-c2ccc(/N=N/c3ccc4c(S(=O)(=O)O)cc(S(=O)(=O)O)c(N)c4c3O)c(OC)c2)ccc1/N=N/c1ccc2c(S(=O)(=O)O)cc(S(=O)(=O)O)c(N)c2c1O [CHICAGO SKY BLUE]
  IC50: > 20 µM
read-out: pIC50 (converted)
  IC50: > 20 µM

## Cc1cc(C)c(Nc2ccnc(Nc3ccc(C#N)cc3)n2)c(C)c1 [DAPIVIRINE]
  IC50: > 20 µM
read-out: pIC50 (converted)
  IC50: > 20 µM

## CCCCOC(=O)NS(=O)(=O)c1sc(CC(C)C)cc1-c1ccc(Cn2ccnc2)cc1 [BULOXIBUTID]
  IC50: > 20 µM
read-out: pIC50 (converted)
  IC50: > 20 µM

## CC1(C)CC[C@]2(C(=O)O)CC[C@]3(C)C(=CCC4[C@@]5(C)CC[C@@H](O)[C@@](C)(CO)C5CC[C@]43C)C2C1 (stereo partly specified)
  IC50: > 20 µM
read-out: pIC50 (converted)
  IC50: > 20 µM

## Clc1ccc(OC[C@@H]2CCN2)cn1
  IC50: > 20 µM
read-out: pIC50 (converted)
  IC50: > 20 µM

## CCc1nn(CCCN2CCN(c3cccc(Cl)c3)CC2)c(=O)n1CCOc1ccccc1 [NEFAZODONE]
  IC50: > 20 µM
read-out: pIC50 (converted)
  IC50: > 20 µM

## CN(C/C=C/C#CC(C)(C)C)Cc1cccc2ccccc12 [TERBINAFINE]
  IC50: > 20 µM
read-out: pIC50 (converted)
  IC50: > 20 µM

## CCC(CC)CC(=O)c1c(C(=O)OC)c(-c2ccc(OC)c(OC)c2)c2c(OC)c(OC)c(OC)cc2c1O
  IC50: > 20 µM
read-out: pIC50 (converted)
  IC50: > 20 µM

## CN1C[C@H](CNC(=O)OCc2ccccc2)C[C@@H]2c3cccc4c3c(cn4C)C[C@H]21 [METERGOLINE]
  IC50: > 20 µM
read-out: pIC50 (converted)
  IC50: > 20 µM

## CC(=O)O[C@H]1C(=O)[C@@]2(C)C([C@H](OC(=O)c3ccccc3)[C@]3(O)C[C@H](OC(=O)[C@H](O)[C@@H](NC(=O)c4ccccc4)c4ccccc4)C(C)=C1C3(C)C)[C@]1(OC(C)=O)CO[C@@H]1C[C@@H]2O (stereo partly specified)
  IC50: > 20 µM
read-out: pIC50 (converted)
  IC50: > 20 µM

## O=C(O)[C@@H]1[C@H]2C[C@H]3c4[nH]c5ccccc5c4CCN3C[C@@H]2CC[C@@H]1O [YOHIMBIC ACID]
  IC50: > 20 µM
read-out: pIC50 (converted)
  IC50: > 20 µM

## Nc1sc2c(c1C(=O)c1ccc(Cl)cc1)CCCC2 [T-62]
  IC50: > 20 µM
read-out: pIC50 (converted)
  IC50: > 20 µM

## CNNCc1ccc(C(=O)NC(C)C)cc1 [PROCARBAZINE]
  IC50: > 20 µM
read-out: pIC50 (converted)
  IC50: > 20 µM

## CCCC(CCC)C(=O)O[C@H]1C[C@H]2CC[C@@H](C1)[N+]2(C)C [ANISOTROPINE]
  IC50: > 20 µM
read-out: pIC50 (converted)
  IC50: > 20 µM

## CC(C)c1ccc2c(c1)CCC1C(C)(CN)CCCC21C (stereo unspecified)
  IC50: > 20 µM
read-out: pIC50 (converted)
  IC50: > 20 µM

## CC(=O)OCC(=O)C1(O)C(C)CC2C3CC(F)C4=CC(=O)C=CC4(C)C3C(O)CC21C (stereo unspecified)
  IC50: > 20 µM
read-out: pIC50 (converted)
  IC50: > 20 µM

## CCC(=O)NS(=O)(=O)c1ccc(NC(=O)COc2ccc(Cl)cc2C(=O)c2cc(Cl)cc(C#N)c2)c(C)c1 [GW-695634]
  IC50: > 20 µM
read-out: pIC50 (converted)
  IC50: > 20 µM
